Measured values reported in patent publication US5252563A, “5,6,7,8-tetrahydro-imidazo[1,2-a]pyrimidine compounds for treatment of neurotoxic injury” (G. D. Searle & Company, priority 1991, dated 1993).
Structures can show the parent of a compound that is named as a salt.

How the values were obtained:
[1] = target: NMDA receptor (N-methyl-D-aspartate-specific L-[^3 H]glutamate recognition site in synaptic plasma membranes); assay: NMDA-Selective Glutamate Binding Assay ([^3 H]GLU)
Experimental: (§1) Synaptic plasma membranes (SPM) were prepared as previously described [Monahan, J.B. and Michel, J., "Identification and Characterization of an N-methyl-D-aspartate-specific L[^3 H]glutamate Recognition Site in Synaptic Plasma Membranes, J. Neurochem., 48, […] (1987)]. The SPM were stored at a concentration of 10-15 mg/ml in 0.32M sucrose, 0.5 mM EDTA, 1 mM MgSO4, 5 mM Tris/SO4, pH 7.4, under liquid nitrogen. The identity and purity of the subcellular fractions were confirmed by both electron microscopy and marker enzymes. Protein concentrations were determined by using a modification of the method of Lowry [Ohnishi, S.T. and Barr, J.K., "A Simplified Method of Quantitating Proteins Using the Biuret and Phenol Reagents", anal. Biochem., 86, 193-197 (1978)]. The SPM were treated identically for the [^3 H]AMPA (QUIS), [3H]kainate and sodium-dependent L-[^3 H]-glumatate binding assays. […] Beckman MP scintillation cocktail containing 7 mL/1 acetic acid was then added and the samples counted on a Beckman LS 5800 or 3801 liquid scintillation counter with automatic corrections for quenching and counting efficiency. […] Radioligand binding to the synaptic plasma membranes was analyzed using Scatchard and Hill transformations and the Ki values of the compounds determined using logit-log transformations. […]

Kainate (KA) receptor = assay: [^3 H]kainate (KA) receptor subclass binding assay, synaptic plasma membranes; conditions: 0.5 nM [^3 H]kainate; SPM; pH 7.4; 0-4° C., 60 min
Experimental: as §1

[2] = target: [^3 H]MK-801 binding, rat SPM (synaptic plasma membranes); assay: [^3 H]MK-801 Binding assay (modulation of [^3 H]MK-801 binding); conditions: 5.0 nM [^3 H]MK-801, L-glutamate 10.0 nM; Triton X-100 treated rat SPM; pH 7.4; 25° C., 30 min
Experimental: Modulation of [^3 H]MK-801 binding was performed using Triton X-100 (0.04% v/v) treated rat SPM that had been extensively washed. Assay incubations were at 25° C. for 30 min. and contained 5.0 nM [^3 H]MK-801, L-glutamate (10.0 nM), and various concentrations of the tested compounds in 50 mM Tris/acetate, pH 7.4. The assay was stopped by rapid filtration, using Brandel MB-48 Harvester, through Whatman GF/B filters treated with 0.05% polyethylenimine and the samples washed four times with 2.0 mL cold buffer. The radioactivity associated with the filter was determined by liquid scintillation spectrometry. Nonspecific binding was defined using 60 μM MK-801. IC50 were determined using a logit-log transformation of the binding data.

O=C(O)c1cn2c(n1)NCCC2CP(=O)(O)O (stereo not shown) [Example 1, 5-Phosphonomethyl-5,6,7,8-tetrahydro-imidazo [1,2-a]pyrimidine-2-carboxylic acid, ammonium salt]
Ki ([1]; NMDA-specific L-[^3 H]glutamate 12.5 nM, Triton X-100 treated SPM, pH 7.4, 0-4° C., 10 min): 700 nM | KA Ki (Kainate (KA) receptor): > 10000 nM | Ki [2]: 280 nM

O=C(O)c1cn2c(n1)NC(CP(=O)(O)O)CC2 (stereo not shown) [Example 2, 7-phosphonomethyl-5,6,7,8-tetrahydro-imidazo[1,2-a]pyrimidine-2-carboxylicacid]
[^3 H]GLU % inhibition ([1]; @ 10 μM): 42%
